Test results taken from ChEMBL document CHEMBL4732194, “Indolyl-α-keto-1,3,4-oxadiazoles: Synthesis, anti-cell proliferation activity, and inhibition of tubulin polymerization” (Bioorg Med Chem Lett, 2021).
pIC50: −log10 of the molar value. Active and inactive are the calls of the source. The rule behind the calls is not given here.

Columns and labels:
BT-474 [1] = assay: Antiproliferative activity against human BT-474 cells assessed as cell survival at 10 uM (reference value: 100 +/ 6.3 %); type: functional; settings: read-out: Activity
[2] = Antiproliferative activity against human SMS-SB cells assessed as cell survival at 10 uM (reference value: 100 +/ 6 %); type: functional; settings: read-out: Activity
U-937 [3] = assay: Antiproliferative activity against human U-937 cells assessed as cell survival at 10 uM (reference value: 100 +/ 8.7 %); type: functional; settings: read-out: Activity
Jurkat [4] = assay: Antiproliferative activity against human Jurkat cells assessed as cell survival at 10 uM (reference value: 104.3 +/ 10.2 %); type: functional; settings: read-out: Activity
[5] = Inhibition of calf brain tubulin polymerization assessed as disruption of microtubule assembly measured after 20 mins in presence of GTP by turbidometric analysis; type: tissue-based, Bos taurus
MCF7 = assay: Antiproliferative activity against estrogen-sensitive human MCF7 cells assessed as cell growth inhibition measured after 4 days by crystal violet staining based assay; type: functional; settings: MCF7, 96 h
Jurkat [6] = assay: Induction of apoptotic cell death in human Jurkat cells assessed as activation of caspase 3/7 by fluorescence assay relative to control; type: functional
[7] = Inhibition of porcine brain tubulin polymerization assessed as disruption of microtubule assembly measured after 1.5 hrs in presence of GTP by fluorescence based analysis; type: tissue-based, Sus scrofa
[8] = Antiproliferative activity against human SMS-SB cells assessed as inhibition of cell proliferation; type: functional, cell-based
U-937 [9] = assay: Antiproliferative activity against human U-937 cells assessed as inhibition of cell proliferation; type: functional, cell-based
Jurkat [10] = assay: Cytotoxicity against human Jurkat cells assessed as cell membrane damage by LDH assay; type: functional, cell-based
Tubulin (Homo sapiens) = Tubulin (Homo sapiens) (UniProt P68371+Q9H4B7+P0DPH7+P68366+Q13509+Q71U36+P04350+Q3ZCM7+P07437+P68363+Q9BQE3+Q6PEY2+Q13885+Q9BVA1+Q9BUF5); assay: (§1) Inhibition of tubulin polymerization (unknown origin) assessed as inhibition of microtubule formation; type: protein-complex assay
Tubulin = assay: as §1; type: protein-complex assay, Homo sapiens
Jurkat [11] = assay: Antiproliferative activity against human Jurkat cells assessed as inhibition of cell proliferation; type: functional, cell-based
BT-474 [12] = assay: Antiproliferative activity against human BT-474 cells assessed as inhibition of cell proliferation; type: functional, cell-based
Jurkat [13] = assay: Induction of apoptotic cell death in human Jurkat cells assessed as activation of caspase 3/7 at 3 uM by fluorescence assay relative to control; type: functional

SMILES	viability at 10 µM (BT-474 [1])	viability at 10 µM [2]	viability at 10 µM (U-937 [3])	viability at 10 µM (Jurkat [4])	other results
COc1ccc(C(=O)c2nnc(-c3c[nH]c4ccccc34)o2)cc1	88.4%	96.2%	108%	99.6%	–
COc1ccc(-c2[nH]c3cc(OC)ccc3c2C=O)cc1	–	–	–	–	pIC50 [5]: 5.82; pIC50 (MCF7): 7.46
COc1cccc2c1C(=O)c1c(O)c3c(c(O)c1C2=O)C[C@@](O)(C(=O)CO)C[C@@H]3O[C@H]1C[C@H](N)[C@H](O)[C@H](C)O1 [DOXORUBICIN]	31.8%	15.1%	22.9%	30.1%	fold change (FC) (Jurkat [6]): 8
COc1ccc(C(=O)c2nnc(-c3cc4ccccc4[nH]3)o2)cc1OC	67.4%	76.1%	75.2%	67.4%	–
COc1ccc2[nH]cc(-c3nnc(C(=O)c4cc(OC)c(OC)c(OC)c4)o3)c2c1	54%	74.3%	85.5%	88.9%	–
O=C(c1ccc(F)cc1)c1nnc(-c2c[nH]c3ccccc23)o1	62.3%	76.8%	95.3%	90.9%	–
COc1ccc(C(=O)c2nnc(-c3c[nH]c4ccc(Br)cc34)o2)cc1	65.8%	94.8%	105%	88.8%	–
COc1ccc(C(=O)c2nnc(-c3c[nH]c4ccc(OC)cc34)o2)cc1	70.3%	70.7%	98.7%	99.9%	–
COc1cc(/C=C/c2nnc(-c3cc(-c4ccc(Cl)cc4)n[nH]3)o2)cc(OC)c1OC	–	–	–	–	pIC50 [7]: 5.89
COc1cc(C(=O)c2nnc(-c3cn(Cc4ccc(Cl)cc4)c4ccccc34)o2)cc(OC)c1OC	68.5%	96.2%	86%	80.6%	–
O=C(c1ccccc1)c1nnc(-c2cn(Cc3ccc(Cl)cc3)c3ccccc23)o1	68.9%	87.9%	85%	82%	–
COc1ccc(C(=O)c2nnc(-c3cc4ccccc4[nH]3)o2)cc1	56.1%	79.9%	84.1%	75.1%	–
COc1cc(C(=O)c2nnc(-c3c[nH]c4ccccc34)o2)cc(OC)c1OC	41.1%	11.6%	27.5%	35.2%	pIC50 [8]: 6.10; pIC50 (U-937 [9]): 5.15; Activity (Jurkat [10]): inactive; inhibition (Tubulin (Homo sapiens)): Dose-dependent effect; pIC50 (Tubulin): 4.97; pIC50 (Jurkat [11]): 5.51; pIC50 (BT-474 [12]): 5.39; fold change (FC) (Jurkat [13]): 9
O=C(Nc1ccncc1)C(=O)c1cn(Cc2ccc(Cl)cc2)c2ccccc12 [INDIBULIN]	40.9%	32.9%	27.1%	31.6%	–
O=C(c1ccccc1)c1nnc(-c2c[nH]c3ccccc23)o1	59.3%	87.6%	98.7%	82.1%	–
Cc1ccc(C(=O)c2nnc(-c3c[nH]c4ccccc34)o2)cc1	67.9%	66.8%	102%	78.9%	–
COc1cc(C(=O)c2nnc(-c3c[nH]c4ccc(Br)cc34)o2)cc(OC)c1OC	56.8%	70.9%	92.1%	77.4%	–
COc1ccc(C(=O)c2nnc(-c3c[nH]c4cc(F)ccc34)o2)cc1	72.6%	101%	108%	86.4%	–
COc1ccc(C(=O)c2nnc(-c3c[nH]c4ccccc34)o2)cc1OC	70.2%	93.5%	90.3%	92.5%	–
COc1cc(C(=O)c2nnc(-c3cc4ccccc4[nH]3)o2)cc(OC)c1OC	111%	35.7%	91.2%	44.9%	–
